These results are taken from patent US20240252506A1 (Hoffmann-La Roche Inc., priority 2021, published 2024).

≈ marks a conversion by molar mass, not a printed value. Where a name gives a salt, the structure may show the parent alone. Bounds are passed on as bounds.

In one assay the test system is Escherichia coli ATCC 25922. In words: Minimal Inhibitory Concentration (MIC) determination, broth microdilution (CLSI M07-A10). The assay is classed as cell-based. As to conditions: Escherichia coli, ATCC25922, strain Escherichia coli ATCC 25922, 18-24 hours at 35±2° C., lowest concentration for complete growth inhibition (no visible growth), read-out: Escherichia coli growth inhibition MIC. How it is done: Minimal Inhibitory Concentration (MIC) Determination:
The MIC of antibacterial compounds against multiple species and strains was determined using the broth microdilution method according to M07-A10 Clinical and Laboratory Standards Institute (CLSI) guidelines, using the appropriate broth medium. In short, the compound plates were prepared by dispensing 100 μL of each stock solution in the first well of a 96 well microtiter plate (MTP) at a concentration 100-fold higher than the final concentration desired in broth. Eleven serial 2-fold dilutions of the highest concentration were made in DMSO for new compounds and in water (or appropriate solution) for reference compounds [2]. 1 μL of each well was transferred in a new MTP, which served as the test plate by subsequent inoculation. This bacterial suspension was prepared from strains that were first sub-cultured on agar plates and incubated for 18-24 hours as appropriate. Following incubation, the inoculum was prepared from isolated colonies and adjusted to 0.5 McFarland turbidity standard (1 to 2×10^8 Colony Forming Units (CFU)/mL) in 0.9% saline. The bacterial suspension was then diluted 1:200 in appropriate sterile medium and within 15 minutes 100 μL/well were dispensed. Negative controls (lack of bacterial cells) and growth control wells (lack of compound) were included in all plates. MTPs were incubated for 18-24 hours at 35±2° C. in ambient air. The MIC value of each compound, expressed as μg/mL, was determined as the lowest concentration required for complete growth inhibition (no visible growth). • [1] CLSI (2015) Methods for dilution antimicrobial susceptibility tests for bacteria that grow aerobically; Approved Standard, Tenth Edition. CLSI Document M7-A10 (ISBN 1-56238-987-4). Wayne, PA: Clinical and Laboratory Standards Institute, 19087, USA. • [2] CLSI (2017) Performance Standards for Antimicrobial Susceptibility Testing; Twenty-Fifth Informational Supplement. CLSI Document M100-S27, CLSI, Wayne, Pennsylvania 19087, USA.
Table 1 provides the Minimal Inhibitory Concentrations (MIC) in micrograms per millilitre of the compounds of present invention obtained against the strain Escherichia coli ATCC 25922.
A general note: Dilution methods test growth across graded concentrations, often in twofold steps.
The term MIC denotes the lowest concentration found to suppress growth. As to `CNCCn1cnc2c(F)c3c(c(F)c21)CC(CN1CCC2(CC1)CN(c1cnc4c(n1)NC(=O)CO4)C(=O)O2)C3` (single isomer, unassigned) [Example 126, 6-[2-oxo-8-[[4,8-difluoro-1-[2-(methylamino)ethyl]-6,7-dihydro-5H-cyclopenta[f]benzimidazol-6-yl]methyl]-1-oxa-3,8-diazaspiro[4.5]decan-3-yl]-4H-pyrazino[2,3-b][1,4]oxazin-3-one], the minimum inhibitory concentration (MIC) was found to be 0.25 µg/mL (≈ 0.44 µM).

In the case of `C[C@H](N)Cn1nnc2c(F)c3c(c(F)c21)CC(CN1CCC2(CC1)CN(c1cnc4c(n1)NC(=O)CO4)C(=O)O2)C3.Cl` (single isomer, unassigned) [Example 130], the MIC worked out at 0.25 µg/mL.

For `CNCc1nc2cc3c(c(F)c2o1)CC(CN1CCC2(CC1)CN(c1ccc4c(n1)NC(=O)CO4)C(=O)O2)C3` (single isomer, unassigned) [Example 136, 6-[8-[[8-Fluoro-2-(methylaminomethyl)-6,7-dihydro-5H-cyclopenta[f][1,3]benzoxazol-6-yl]methyl]-2-oxo-1-oxa-3,8-diazaspiro[4.5]decan-3-yl]-4H-pyrido[3,2-b][1,4]oxazin-3-one], the MIC was 1 µg/mL (≈ 1.86 µM).

As for `O=C1COc2ncc(N3CC4(CCN(CC5Cc6cc7nc([C@@H]8C[C@@H](O)CN8)oc7c(F)c6C5)CC4)OC3=O)nc2N1` (single isomer, unassigned) [Example 141], the minimal inhibitory concentration (MIC) was found to be 0.5 µg/mL (≈ 0.863 µM).

For the molecule `CN[C@@H](CO)c1nc2cc3c(c(F)c2o1)CC(CN1CCC2(CC1)CN(c1cnc4c(n1)NC(=O)CO4)C(=O)O2)C3` (single isomer, unassigned) [Example 145], the minimum inhibitory concentration (MIC) is 0.5 µg/mL (≈ 0.881 µM).

Turning to `CN(C)CC(=O)N(C)CCn1nnc2c(F)c3c(c(F)c21)CC(CN1CCC2(CC1)CN(c1cnc4c(n1)NC(=O)CO4)C(=O)O2)C3` (single isomer, unassigned) [Example 152, N-[2-[4,8-difluoro-6-[[2-oxo-3-(3-oxo-4H-pyrazino[2,3-b][1,4]oxazin-6-yl)-1-oxa-3,8-diazaspiro[4.5]decan-8-yl]methyl]-6,7-dihydro-5H-cyclopenta[f]benzotriazol-1-yl]ethyl]-2-(dimethylamino)-N-methyl-acetamide], the MIC was determined as 2 µg/mL (≈ 3.05 µM).

Regarding `CC(=O)N(C)CCn1nnc2c(F)c3c(c(F)c21)CC(CN1CCC2(CC1)CN(c1cnc4c(n1)NC(=O)CO4)C(=O)O2)C3` (single isomer, unassigned) [Example 156, N-[2-[4,8-difluoro-6-[[2-oxo-3-(3-oxo-4H-pyrazino[2,3-b][1,4]oxazin-6-yl)-1-oxa-3,8-diazaspiro[4.5]decan-8-yl]methyl]-6,7-dihydro-5H-cyclopenta[f]benzotriazol-1-yl]ethyl]-N-methyl-acetamide], the minimal inhibitory concentration (MIC) was 8 µg/mL (≈ 13.1 µM).

Regarding `CN(CCn1nnc2c(F)c3c(c(F)c21)CC(CN1CCC2(CC1)CN(c1cnc4c(n1)NC(=O)CO4)C(=O)O2)C3)C(=O)CN` (single isomer, unassigned) [Example 166, 2-Amino-N-methyl-N-[2-[4,8-difluoro-6-[[2-oxo-3-(3-oxo-4H-pyrazino[2,3-b][1,4]oxazin-6-yl)-1-oxa-3,8-diazaspiro[4.5]decan-8-yl]methyl]-6,7-dihydro-5H-cyclopenta[f]benzotriazol-1-yl]ethyl]acetamide], the MIC was determined as 1 µg/mL (≈ 1.6 µM).

The same assay, now with this note: strain Escherichia coli ATCC 25922, 18-24 hours at 35±2° C., lowest concentration for complete growth inhibition (no visible growth).
Consider `CNCCn1cnc2c(F)c3c(c(F)c21)CC(CN1CCC2(CC1)CN(c1cnc4c(n1)NC(=O)CO4)C(=O)O2)C3` (single isomer, unassigned) [Example 127], for which the “Escherichia coli growth inhibition MIC” value is 0.25 µg/mL.

As for `CNCc1nc2cc3c(c(F)c2o1)CC(CN1CCC2(CC1)CN(c1ccc4c(n1)NC(=O)CO4)C(=O)O2)C3` (single isomer, unassigned) [Example 137, 6-[8-[[8-Fluoro-2-(methylaminomethyl)-6,7-dihydro-5H-cyclopenta[f][1,3]benzoxazol-6-yl]methyl]-2-oxo-1-oxa-3,8-diazaspiro[4.5]decan-3-yl]-4H-pyrido[3,2-b][1,4]oxazin-3-one], the “Escherichia coli growth inhibition MIC” value stood at 0.5 µg/mL.

In the case of `CN(C)CC(=O)N(C)CCn1nnc2c(F)c3c(c(F)c21)CC(CN1CCC2(CC1)CN(c1cnc4c(n1)NC(=O)CO4)C(=O)O2)C3` (single isomer, unassigned) [Example 153, N-[2-[4,8-difluoro-6-[[2-oxo-3-(3-oxo-4H-pyrazino[2,3-b][1,4]oxazin-6-yl)-1-oxa-3,8-diazaspiro[4.5]decan-8-yl]methyl]-6,7-dihydro-5H-cyclopenta[f]benzotriazol-1-yl]ethyl]-2-(dimethylamino)-N-methyl-acetamide], the “Escherichia coli growth inhibition MIC” value was 2 µg/mL.

For the molecule `CC(=O)N(C)CCn1nnc2c(F)c3c(c(F)c21)CC(CN1CCC2(CC1)CN(c1cnc4c(n1)NC(=O)CO4)C(=O)O2)C3` (single isomer, unassigned) [Example 157, N-[2-[4,8-difluoro-6-[[2-oxo-3-(3-oxo-4H-pyrazino[2,3-b][1,4]oxazin-6-yl)-1-oxa-3,8-diazaspiro[4.5]decan-8-yl]methyl]-6,7-dihydro-5H-cyclopenta[f]benzotriazol-1-yl]ethyl]-N-methyl-acetamide], the “Escherichia coli growth inhibition MIC” value turned out to be 4 µg/mL.

With `CN(CCn1nnc2c(F)c3c(c(F)c21)CC(CN1CCC2(CC1)CN(c1cnc4c(n1)NC(=O)CO4)C(=O)O2)C3)C(=O)CN` (single isomer, unassigned) [Example 167, 2-Amino-N-methyl-N-[2-[4,8-difluoro-6-[[2-oxo-3-(3-oxo-4H-pyrazino[2,3-b][1,4]oxazin-6-yl)-1-oxa-3,8-diazaspiro[4.5]decan-8-yl]methyl]-6,7-dihydro-5H-cyclopenta[f]benzotriazol-1-yl]ethyl]acetamide], the “Escherichia coli growth inhibition MIC” value stood at 1 µg/mL.

Still in this assay, the particulars now being: strain Escherichia coli ATCC 25922, 18-24 hours at 35±2° C., lowest concentration for complete growth inhibition (no visible growth), dihydrochloride.
On to `NCCn1nc2cc3c(c(F)c2n1)CC(CN1CCC2(CC1)CN(c1ccc4c(n1)NC(=O)CO4)C(=O)O2)C3` (single isomer, unassigned) [Example 132, 6-[2-oxo-8-[[2-(2-aminoethyl)-8-fluoro-6,7-dihydro-5H-cyclopenta[f]benzotriazol-6-yl]methyl]-1-oxa-3,8-diazaspiro[4.5]decan-3-yl]-4H-pyrido[3,2-b][1,4]oxazin-3-one dihydrochloride], for which the “Escherichia coli growth inhibition MIC” value came out at 0.25 µg/mL.

For the molecule `NCCn1nc2cc3c(c(F)c2n1)CC(CN1CCC2(CC1)CN(c1ccc4c(n1)NC(=O)CO4)C(=O)O2)C3` (single isomer, unassigned) [Example 133, 6-[2-oxo-8-[[2-(2-aminoethyl)-8-fluoro-6,7-dihydro-5H-cyclopenta[f]benzotriazol-6-yl]methyl]-1-oxa-3,8-diazaspiro[4.5]decan-3-yl]-4H-pyrido[3,2-b][1,4]oxazin-3-one dihydrochloride], the “Escherichia coli growth inhibition MIC” value was found to be 1 µg/mL.

In the case of `NCCn1nc2cc3c(c(F)c2n1)CC(CN1CCC2(CC1)CN(c1cnc4c(n1)NC(=O)CO4)C(=O)O2)C3` (single isomer, unassigned) [Example 134, 6-[2-oxo-8-[[2-(2-aminoethyl)-8-fluoro-6,7-dihydro-5H-cyclopenta[f]benzotriazol-6-yl]methyl]-1-oxa-3,8-diazaspiro[4.5]decan-3-yl]-4H-pyrazino[2,3-b][1,4]oxazin-3-one dihydrochloride], the “Escherichia coli growth inhibition MIC” value turned out to be 0.125 µg/mL.

`NCCn1nc2cc3c(c(F)c2n1)CC(CN1CCC2(CC1)CN(c1cnc4c(n1)NC(=O)CO4)C(=O)O2)C3` (single isomer, unassigned) [Example 135, 6-[2-oxo-8-[[2-(2-aminoethyl)-8-fluoro-6,7-dihydro-5H-cyclopenta[f]benzotriazol-6-yl]methyl]-1-oxa-3,8-diazaspiro[4.5]decan-3-yl]-4H-pyrazino[2,3-b][1,4]oxazin-3-one dihydrochloride]: the “Escherichia coli growth inhibition MIC” value was not above 0.06 µg/mL.

For the molecule `NCCn1nc2cc(F)c3c(c2n1)CC(CN1CCC2(CC1)CN(c1ccc4c(n1)NC(=O)CO4)C(=O)O2)C3` (single isomer, unassigned) [Example 170, 6-[2-Oxo-8-[[2-(2-aminoethyl)-5-fluoro-7,8-dihydro-6H-cyclopenta[e]benzotriazol-7-yl]methyl]-1-oxa-3,8-diazaspiro[4.5]decan-3-yl]-4H-pyrido[3,2-b][1,4]oxazin-3-one dihydrochloride], the “Escherichia coli growth inhibition MIC” value was found to be 0.25 µg/mL.

The assay is the same for the next values; noted with them: strain Escherichia coli ATCC 25922, 18-24 hours at 35±2° C., lowest concentration for complete growth inhibition (no visible growth), hydrochloride.
In the case of `C[C@H](N)Cn1nnc2c(F)c3c(c(F)c21)CC(CN1CCC2(CC1)CN(c1cnc4c(n1)NC(=O)CO4)C(=O)O2)C3.Cl` (single isomer, unassigned) [Example 131], the “Escherichia coli growth inhibition MIC” value was determined as 0.125 µg/mL.
